According to US20220409617A1, “Drug Formulations and Methods of Treatment for Metabolic Disorders” (The Regents of the University of California, priority 2019, published 2022):

How the values were obtained:
[1] = Indirect calorimetry and food intake in metabolic cages; type: in vivo, mouse
Protocol: To examine the effects of sphingolipid-like compound 893 on whole body metabolism, indirect calorimetry was performed. Male C57BL/6J mice were maintained on the SD or HFD for 10-12 weeks, acclimated to metabolic cages that mimic the home environment, and then treated with vehicle or 120 mg/kg sphingolipid-like compound 893 by gavage at ZT8.5. […] As expected, RER values were lower during both light and dark cycles and diurnal fluctuations in substrate utilization were blunted in HFD-fed mice relative to SD controls (FIGS. 29 & 30). […] Consistent with the pharmacokinetic properties of sphingolipid-like compound 893 (see FIG. 12), RER returned to control values 24 h after sphingolipid-like compound 893 treatment (FIGS. 28 & 29). Animals were similarly responsive to a second treatment with sphingolipid-like compound 893 given 48 h after the first.
Metabolic parameters were measured using the Phenomaster system (TSE Systems Inc., Chesterfield, Mo.). The climate chamber was set to 21° C. and 50% humidity with a 12:12 h light-dark cycle. Mice were singly housed inside the chamber and acclimated for 48 h prior to data collection. VO2, VCO2, and food intake was measured every 27 min. Respiratory exchange ratio (RER) was calculated using the formula RER=VCO2/VO2. Energy expenditure was calculated using the equation EE=1.44(3.941×VO2+1.106×VCO2). In the indirect calorimetry studies in FIGS. 12 to 14, C57BL/6J mice were maintained on the HFD or SD for 10-12 weeks prior to evaluation and were naïve to therapy. Mice were serially evaluated in cohorts of 4 vehicle- and 4 sphingolipid-like compound 893-treated mice using 8 metabolic cages. Treatment was by gavage at ZT8.5, sphingolipid-like compound 893 was administered at 120 mg/kg in water. To evaluate the effect of morning treatment, vehicle or 120 mg/kg sphingolipid-like compound 893 was administered at ZT2 to 18 week old C57BL/6J males on a standard diet. Liquid diet experiments were also performed on 18 week old C57BL/6J males; mice were treated with sphingolipid-like compound 893 at ZT8.5 and food access was restricted at ZT11. Liquid feed (AIN-76, BioServ, Flemington, N.J.) was prepared at 1000 kcal/L in milli-Q water and at ZT12, mice were gavaged with 400 μL (0.4 kcal) of diet, corresponding to approximately 3 h of ad libitum consumption of standard chow. For the pair feeding study, RER was monitored over 12 h in mice maintained on the HFD for 22 weeks (31 weeks of age); pair-fed mice were used after a 48 h wash-out period and provided with the average amount of food they ate over 24 h after sphingolipid-like compound 893 treatment (92.5 mg or 0.4 kcal).
During measurements of one SD cohort (4 vehicle- and 4 sphingolipid-like compound 893-treated mice), a leak in the reference CO2 system was detected, the O2 and CO2 data was censored until the leak was corrected (70-74 h). Feeding and activity measurements were not compromised and were still analyzed. Occasionally, uneaten food was found on the floor of the cage precluding use of the hopper sensor to accurately monitor food intake. In these instances, food intake data was censored for the prior 24 h period (days 2 and 3 for mouse 8 (SD+sphingolipid-like compound 893) and mouse 8 (SD+vehicle), and day 3 for mouse 8 (HFD+sphingolipid-like compound 893) and mouse 1 (HFD+vehicle)). […] In rare cases, inadvertent pharyngeal administration of gavage material occurred. These mice were not euthanized, but food intake, calorimetry, and activity data from these animals was excluded from the analysis for 1 week after this event (mouse 2 (HFD+sphingolipid-like compound 893) after the second treatment on day 3 and mouse 5 (HFD+sphingolipid-like compound 893) after the first dose on day 1).

[2] = Home-cage feeding study with suboptimal leptin (leptin sensitization); type: in vivo, mouse
Text: Leptin is secreted by adipocytes in proportion to their triglyceride content, signaling to the CNS when peripheral energy stores are full and food consumption should decrease. In HFD-fed mice, chronic increases in adiposity lead to elevations in circulating leptin with no accompanying decrease in food intake, a state that has been termed leptin-resistant. Reducing leptin levels in the blood restores leptin signaling in the hypothalamus (S. Zhao, et al., 2019, cited supra). Thus, the sphingolipid-like compound 893 should function as a leptin-sensitizing agent. To test this model, 18 week old lean, male C57BL/6J mice were treated intraperitoneally with a suboptimal dose of recombinant leptin at ZT8.5 and food intake and body weight measured over the next 18 h. […] In summary, the reduction in food intake in sphingolipid-like compound 893-treated mice is consistent with the reversal of mitochondrial fragmentation in the hypothalamus and likely due in part to the re-sensitization of anorexigenic POMG neurons to leptin when plasma leptin levels are decreased.
Mice were singly housed and allowed to acclimate for 72 h before food intake was monitored. Food consumption was determined by monitoring the weight of food in the hopper. Initial food and body weight measurements were taken at ZT9 and final measurements were taken 16 h later to capture the active period where most consumption occurred. Home cage feeding studies were performed with C57BL/6J mice maintained on a HFD for 24 weeks (33 weeks of age), or ob/ob mice at 8 weeks of age. Mice received vehicle or 120 mg/kg sphingolipid-like compound 893 by gavage at ZT8.5. For experiments involving leptin, 18 week old, SD fed (16% kcal from fat, 2020×, Envigo) C57BL/6J mice received vehicle or 120 mg/kg sphingolipid-like compound 893 by gavage at ZT8.5. […] One ob/ob mouse died during Echo MRI for unknown reasons after 6 d of treatment with sphingolipid-like compound 893; data from this mouse was analyzed prior to death.

[3] = mice on SD or HFD 10-12 weeks, 120 mg/kg p.o. at ZT8.5

CCCCCCCCc1ccc([C@H]2CCN[C@@H]2CO)cc1.Cl [compound 893]
Food intake and RER, morning dosing ([1]; 120 mg/kg at ZT2, mice on standard diet): still decreased both food intake and RER
Activity (XY beam breaks) ([1]; 120 mg/kg p.o. at ZT8.5): trend towards reduced activity
Energy expenditure (Weir formula) ([1]; 120 mg/kg p.o. at ZT8.5): not significantly affected
Time after treatment at which RER returned to control values ([1]; 120 mg/kg p.o. at ZT8.5): 24 h
Food intake and body weight loss, HFD for 22 weeks ([1]; mice on HFD 22 weeks, 120 mg/kg once at ZT8.5): the suppression of food intake and body weight loss appeared to increase
Food intake in metabolic caging [1, 3]: reduced food intake
Respiratory exchange ratio (RER) [1, 3]: reduced the RER in both HFD- and SD-fed mice
Food intake and body weight over 18 h, single agent ([2]; lean chow-fed 18 week old mice, leptin 2 mg/kg i.p. or 893 120 mg/kg by gavage): trend towards reduced food intake and body weight
Food intake and body weight over 18 h, combined with leptin ([2]; lean chow-fed mice, 893 120 mg/kg by gavage plus leptin 2 mg/kg i.p.): statistically significant decrease in food intake and body weight
